From the NIST ThermoML archive (doi:10.1016/j.fluid.2008.09.004)

Tests used:
[1] = xn = mol fraction of the nth substance listed; conditions: 101 kPa, Liquid, Vibrating tube method
[2] = molar heat capacity at constant pressure; xn = mol fraction of the nth substance listed; conditions: 101 kPa, Liquid, Small sample (50 mg) DSC

CCCCn1cc[n+](C)c1.F[B-](F)(F)F [1-butyl-3-methylimidazolium tetrafluoroborate] + CCO
Conditions	mass density, [1] [kg/m3]	molar heat capacity at constant pressure, [2] [J/K/mol]
293.15 K, x1 = 0.0987	903	150.5
293.15 K, x1 = 0.1923	976.5	174.4
293.15 K, x1 = 0.3004	1037.8	197.8
293.15 K, x1 = 0.3885	1075.8	219.8
293.15 K, x1 = 0.4865	1108.8	240.1
293.15 K, x1 = 0.573	1132.8	258.3
293.15 K, x1 = 0.6738	1155.4	281.8
293.15 K, x1 = 0.7531	1170.9	300.8
293.15 K, x1 = 0.8821	1191.8	330.9
298.15 K, x1 = 0.0987	898.9	150
298.15 K, x1 = 0.1923	972.5	173.6
298.15 K, x1 = 0.3004	1033.9	198.8
298.15 K, x1 = 0.3885	1071.9	219.6
298.15 K, x1 = 0.4865	1105	241.2
298.15 K, x1 = 0.573	1129.1	259.7
298.15 K, x1 = 0.6738	1151.7	283.5
298.15 K, x1 = 0.7531	1167.2	302.6
298.15 K, x1 = 0.8821	1188.2	333
303.15 K, x1 = 0.0987	894.8	149.9
303.15 K, x1 = 0.1923	968.5	173.5
303.15 K, x1 = 0.3004	1030	199.7
303.15 K, x1 = 0.3885	1068	219.9
303.15 K, x1 = 0.4865	1101.2	242.3
303.15 K, x1 = 0.573	1125.3	261.1
303.15 K, x1 = 0.6738	1148	285.2
303.15 K, x1 = 0.7531	1163.5	304.3
303.15 K, x1 = 0.8821	1184.6	335.1
308.15 K, x1 = 0.0987	890.8	150.3
308.15 K, x1 = 0.1923	964.6	174.2
308.15 K, x1 = 0.3004	1026.1	200.6
308.15 K, x1 = 0.3885	1064.2	220.6
308.15 K, x1 = 0.4865	1097.4	243.4
308.15 K, x1 = 0.573	1121.6	262.4
308.15 K, x1 = 0.6738	1144.4	286.9
308.15 K, x1 = 0.7531	1159.9	306.2
308.15 K, x1 = 0.8821	1181	337.2
313.15 K, x1 = 0.0987	886.6	151.1
313.15 K, x1 = 0.1923	960.5	175.6
313.15 K, x1 = 0.3004	1022.2	201.4
313.15 K, x1 = 0.3885	1060.4	221.7
313.15 K, x1 = 0.4865	1093.6	244.4
313.15 K, x1 = 0.573	1117.9	263.7
313.15 K, x1 = 0.6738	1140.7	288.5
313.15 K, x1 = 0.7531	1156.3	308
313.15 K, x1 = 0.8821	1177.4	339.3
318.15 K, x1 = 0.0987	882.4	152.4
318.15 K, x1 = 0.1923	956.5	177.8
318.15 K, x1 = 0.3004	1018.2	202.3
318.15 K, x1 = 0.3885	1056.5	223.3
318.15 K, x1 = 0.4865	1089.8	245.6
318.15 K, x1 = 0.573	1114.2	265.1
318.15 K, x1 = 0.6738	1137.1	290.1
318.15 K, x1 = 0.7531	1152.7	309.9
318.15 K, x1 = 0.8821	1173.8	341.4

CCCCn1cc[n+](C)c1.COS(=O)(=O)[O-] [1-butyl-3-methylimidazolium methyl sulfate] + CCO
Conditions	mass density, [1] [kg/m3]	molar heat capacity at constant pressure, [2] [J/K/mol]
293.15 K, x1 = 0.0511	860.9	128.1
293.15 K, x1 = 0.1025	916.2	143.3
293.15 K, x1 = 0.199	–	171.7
293.15 K, x1 = 0.2016	995	–
293.15 K, x1 = 0.3106	1055	204.1
293.15 K, x1 = 0.4058	1093.4	232.2
293.15 K, x1 = 0.5057	1124.7	262.1
293.15 K, x1 = 0.6005	1147.9	290.9
293.15 K, x1 = 0.69	1166.6	318.2
293.15 K, x1 = 0.7834	1182.5	346.9
293.15 K, x1 = 0.8815	1196.6	377.1
293.15 K, x1 = 0.9368	1203.5	394
298.15 K, x1 = 0.0511	856.7	130
298.15 K, x1 = 0.1025	912.2	145.1
298.15 K, x1 = 0.199	–	173.4
298.15 K, x1 = 0.2016	991.2	–
298.15 K, x1 = 0.3106	1051.3	205.8
298.15 K, x1 = 0.4058	1089.8	234
298.15 K, x1 = 0.5057	1121.2	263.9
298.15 K, x1 = 0.6005	1144.5	292.8
298.15 K, x1 = 0.69	1163.1	320.3
298.15 K, x1 = 0.7834	1179.1	349.1
298.15 K, x1 = 0.8815	1193.2	379.5
298.15 K, x1 = 0.9368	1200.2	396.5
303.15 K, x1 = 0.0511	852.6	131.8
303.15 K, x1 = 0.1025	908.2	146.7
303.15 K, x1 = 0.199	–	174.9
303.15 K, x1 = 0.2016	987.4	–
303.15 K, x1 = 0.3106	1047.6	207.2
303.15 K, x1 = 0.4058	1086.3	235.6
303.15 K, x1 = 0.5057	1117.7	265.6
303.15 K, x1 = 0.6005	1141	294.7
303.15 K, x1 = 0.69	1159.7	322.3
303.15 K, x1 = 0.7834	1175.7	351.2
303.15 K, x1 = 0.8815	1189.9	381.7
303.15 K, x1 = 0.9368	1196.9	398.9
308.15 K, x1 = 0.0511	848.5	133.5
308.15 K, x1 = 0.1025	904.3	148.3
308.15 K, x1 = 0.199	–	176.4
308.15 K, x1 = 0.2016	983.6	–
308.15 K, x1 = 0.3106	1043.9	208.6
308.15 K, x1 = 0.4058	1082.7	237.1
308.15 K, x1 = 0.5057	1114.2	267.3
308.15 K, x1 = 0.6005	1137.6	296.5
308.15 K, x1 = 0.69	1156.3	324.2
308.15 K, x1 = 0.7834	1172.3	353.3
308.15 K, x1 = 0.8815	1186.6	383.9
308.15 K, x1 = 0.9368	1193.6	401.2
313.15 K, x1 = 0.0511	844.4	135
313.15 K, x1 = 0.1025	900.2	149.7
313.15 K, x1 = 0.199	–	177.6
313.15 K, x1 = 0.2016	979.8	–
313.15 K, x1 = 0.3106	1040.3	209.9
313.15 K, x1 = 0.4058	1079.1	238.5
313.15 K, x1 = 0.5057	1110.7	268.9
313.15 K, x1 = 0.6005	1134.1	298.2
313.15 K, x1 = 0.69	1152.9	326.1
313.15 K, x1 = 0.7834	1169	355.3
313.15 K, x1 = 0.8815	1183.3	386
313.15 K, x1 = 0.9368	1190.3	403.3
318.15 K, x1 = 0.0511	840.1	136.6
318.15 K, x1 = 0.1025	896.1	151
318.15 K, x1 = 0.199	–	178.8
318.15 K, x1 = 0.2016	975.9	–
318.15 K, x1 = 0.3106	1036.6	211.2
318.15 K, x1 = 0.4058	1075.5	239.8
318.15 K, x1 = 0.5057	1107.2	270.5
318.15 K, x1 = 0.6005	1130.7	299.9
318.15 K, x1 = 0.69	1149.5	327.9
318.15 K, x1 = 0.7834	1165.6	357.3
318.15 K, x1 = 0.8815	1180	388
318.15 K, x1 = 0.9368	1187	405.4
